Measured values: US11090304B2 (Amgen Inc., priority 2018, dated 2021)
pIC50: −log10 of the molar value.

Target: GDP-bound KRAS protein (aa 1-169), containing both G12C and C118A amino acid substitutions (Homo sapiens, UniProt P01116, C118A/G12C)
Assay: Coupled nucleotide exchange assay (SOS-mediated, AlphaScreen)
Format: biochemical
Conditions: 5 min compound pre-incubation

Coupled exchange IC50 (5 min)	Compound
20.6 | nda μM	C=CC(=O)N1CCN(c2nc(CO)c(C(=O)N3[C@@H](C)CC[C@@H]3C)c3nc(-c4ccccc4F)c(Cl)cc23)CC1 [Example 149, 1-(4-(3-Chloro-8-(((2S,5S)-2,5-dimethyl-1-pyrrolidinyl)carbonyl)-2-(2-fluorophenyl)-7-(hydroxymethyl)-1,6-naphthyridin-5-yl)-1-piperazinyl)-2-propen-1-one]

Same assay, conditions: read-out: Coupled exchange IC50 (5 min); 5 min compound pre-incubation

pIC50	Compound
6.65	6-Chloro-7-(2-fluoro-6-hydroxyphenyl)-4-((2S)-2-methyl-4-(2-propenoyl)-1-piperazinyl)-1-(2-(methylsulfonyl)phenyl)pyrido[2,3-d]pyrimidin-2(1H)-one [Example 54-1]
7.36	C=CC(=O)N1CCN(c2nc(=O)n(-c3c(C)cccc3C(C)C)c3nc(-c4ccccc4F)c(Cl)cc23)[C@@H](C)C1 (atropisomer, axis not shown; (M)) [Example 64-1, (M)-6-Chloro-7-(2-fluorophenyl)-1-(2-methyl-6-(2-propanyl)phenyl)-4-((2S)-2-methyl-4-(2-propenoyl)-1-piperazinyl)pyrido[2,3-d]pyrimidin-2(1H)-one]
5.53	Mixture of (M)-6-chloro-7-((2R)-2-methyl-1-piperidinyl)-4-((2S)-2-methyl-4-(2-propenoyl)-1-piperazinyl)-1-(2-(2-propanyl)phenyl)pyrido[2,3-d]pyrimidin-2(1H)-one and (M)-6-chloro-7-((2S)-2-methyl-1-piperidinyl)-4-((2S)-2-methyl-4-(2-propenoyl)-1-piperazinyl)-1-(2-(2-propanyl)phenyl)pyrido[2,3-d]pyrimidin-2(1H)-one [Example 115]

System: Phosphorylation of ERK1/2 in MIA PaCa-2 cells
Assay: Phospho-ERK1/2 MSD assay in MIA PaCa-2 cells
Format: cell-based
Conditions: Homo sapiens, MIA PaCa-2, 2 h, read-out: p-ERK IC50 (2 h; MIA PaCa-2), 2 h compound treatment
Method: For compounds in Table 89, the following assay conditions were employed:
Phospho-ERK1/2 MSD Assay:
Sixteen hours prior to compound treatment, MIA PaCa-2 or A549 cells were seeded in 96-well cell culture plates at a density of 25,000 cells/well and incubated at 37° C., 5% CO2. A compound dose-response titration was diluted in growth media, added to appropriate wells of a cell culture plate, and then incubated at 37° C., 5% CO2 for 2 or 4 hours (see Table 15). Following compound treatment, cells were stimulated with 10 ng/mL EGF (Roche 11376454001) for 10 min, washed with ice-cold Dulbecco's phosphate-buffered saline, no Ca^2+ or Mg^2+ (ThermoFisher Scientific 14190144), and then lysed in RIPA buffer (50 mM Tris-HCl pH 7.5, 1% Igepal, 0.5% sodium deoxycholate, 150 mM NaCl, and 0.5% sodium dodecyl sulfate) containing protease inhibitors (Roche 4693132001) and phosphatase inhibitors (Roche 4906837001). Phosphorylation of ERK1/2 in compound-treated lysates was assayed using Phospho-ERK1/2 Whole Cell Lysate kits (Meso Scale Discovery K151DWD) according to the manufacturer's protocol. Assay plates were read on a Meso Scale Discovery Sector Imager 6000, and data were analyzed using a 4-parameter logistic model to calculate IC50 values.

Compound	pIC50
C=CC(=O)N1CCN(c2nc(=O)n(-c3c(C(C)C)ccnc3C)c3nc(-c4c(O)cccc4F)c(Cl)cc23)[C@@H](C)C1 [Example 54-17, 6-chloro-7-(2-fluoro-6-hydroxy-phenyl)-1-(2-methyl-4-(2-propanyl)-3-pyridinyl)-4-((2S)-2-methyl-4-(2-propenoyl)-1-piperazinyl) pyrido[2,3-d]pyrimidin-2(1H)-one]	6.30
C=CC(=O)N1CCN(c2nc(=O)n(-c3ccccc3C(C)C)c3nc(-c4ccccc4O)c(Cl)cc23)[C@@H](C)C1 [Example 54-43, 6-chloro-7-(2-hydroxyphenyl)-4-((2S)-2-methyl-4-(2-propenoyl)-1-piperazinyl)-1-(2-(2-propanyl)phenyl)pyrido [2,3-d]pyrimidin-2(1H)-one]	6.60
C=CC(=O)N1CCN(c2nc(=O)n(-c3c(C)cnn3C(C)C)c3nc(-c4c(O)cccc4F)c(Cl)cc23)[C@@H](C)C1 [Example 54-70, 6-chloro-7-(2-fluoro-6-hydroxyphenyl)-1-(4-methyl-1-(2-propanyl)-1H-pyrazol-5-yl)-4-((2S)-2-methyl-4-(2-propenoyl)-1-piperazinyl) pyrido[2,3-d]pyrimidin-2(1H)-one]	7.06
C=CC(=O)N1CCN(c2nc(CO)cc3nc(-c4ccccc4F)c(Cl)cc23)[C@@H](C)C1 [Example 150, 1-((3S)-4-(3-Chloro-2-(2-fluorophenyl)-7-(hydroxymethyl)-1,6-naphthyridin-5-yl)-3-methyl-1-piperazinyl)-2-propen-1-one]	5.48

Second part, the compound after the results:

pIC50	Compound
7.60	C=CC(=O)N1CCN(c2nc(=O)n(-c3c(C(C)C)ncnc3C(C)C)c3nc(-c4c(O)cccc4F)c(Cl)cc23)[C@@H](C)C1 [Example 55-2]
6.87	C=CC(=O)N1CCN(c2nc(=O)n(-c3c(C)ncnc3C(C)C)c3nc(-c4c(O)cccc4F)c(Cl)cc23)[C@@H](C)C1 [Example 55-14, 6-chloro-7-(2-fluoro-6-hydroxyphenyl)-1-(4-methyl-6-(2-propanyl)-5-pyrimidinyl)-4-((2S)-2-methyl-4-(2-propenoyl)-1-piperazinyl)pyrido[2,3-d]pyrimidin-2(1H)-one]
6.13	C=CC(=O)N1CCN(c2nc(=O)n(-c3c(C)ncnc3C(C)C)c3nc(-c4c(O)cccc4F)c(F)cc23)[C@@H](C)C1 [Example 58-11, 6-fluoro-7-(2-fluoro-6-hydroxyphenyl)-1-(4-methyl-6-(2-propanyl)-5-pyrimidinyl)-4-((2S)-2-methyl-4-(2-propenoyl)-1-piperazinyl)pyrido[2,3-d]pyrimidin-2(1H)-one]
6.44	C=CC(=O)N1CCN(c2nc(=O)n(-c3c(C(C)C)ccnc3C)c3nc(-c4c(O)cccc4F)c(F)cc23)[C@@H](C)C1 [Example 58-15, 6-fluoro-7-(2-fluoro-6-hydroxyphenyl)-1-(2-methyl-4-(2-propanyl)-3-pyridinyl)-4-((2S)-2-methyl-4-(2-propenoyl)-1-piperazinyl)pyrido[2,3-d]pyrimidin-2(1H)-one]
6.57	C=CC(=O)N1CCN(c2nc(=O)n(-c3c(C)cccc3C(C)C)c3nc(-c4c(O)cccc4F)c(F)cc23)[C@@H](C)C1 [Example 58-18, 6-fluoro-7-(2-fluoro-6-hydroxyphenyl)-1-(2-methyl-6-(2-propanyl)phenyl)-4-((2S)-2-methyl-4-(2-propenoyl)-1-piperazinyl)pyrido[2,3-d]pyrimidin-2(1H)-one]
5.77	C=CC(=O)N1CCN(c2nc(=O)n(-c3ccccc3C(C)C)c3nc(N4CCCC4)c(Cl)cc23)[C@@H](C)C1 [Example 69-3, 6-chloro-4-((2S)-2-methyl-4-(2-propenoyl)-1-piperazinyl)-1-(2-(2-propanyl)phenyl)-7-(1-pyrrolidinyl)pyrido[2,3-d]pyrimidin-2(1H)-one]
5.00	C=CC(=O)N1CCN(c2nc(C)c(-c3ccccc3C3CC3)c3nc(-c4ccccc4F)c(Cl)cc23)CC1 [Example 85-3, 1-(4-(3-chloro-8-(2-cyclopropylphenyl)-2-(2-fluorophenyl)-7-methyl-1,6-naphthyridin-5-yl)-1-piperazinyl)-2-propen-1-one]
5.00	C=CC(=O)N1CCN(c2nc(C)c(-c3ccccc3C(C)C)c3nc(-c4ccccc4F)c(Cl)cc23)[C@@H](C)C1 [Example 85-4, 1-((3S)-4-(3-chloro-2-(2-fluorophenyl)-7-methyl-8-(2-(2-propanyl)phenyl)-1,6-naphthyridin-5-yl)-3-methyl-1-piperazinyl)-2-propen-1-one]

Same assay, conditions: Homo sapiens, MIA PaCa-2, 4 h, read-out: p-ERK IC50 (4 h; MIA PaCa-2), 4 h compound treatment

pIC50	Compound
5.65	C=CC(=O)N1CCN(c2nc(=O)n(CC3(C(F)(F)F)CC3)c3nc(-c4ccccc4F)c(Cl)cc23)CC1 [Example 60-4, 6-chloro-7-(2-fluorophenyl)-4-(4-(2-propenoyl)-1-piperazinyl)-1-((1-(trifluoromethyl)cyclopropyl)methyl)pyrido[2,3-d]pyrimidin-2(1H)-one]

Same assay, conditions: read-out: p-ERK IC50 (2 h; MIA PaCa-2), 2 h compound treatment

Compound	pIC50
6-Chloro-7-(2-fluoro-6-hydroxyphenyl)-4-((2S)-2-methyl-4-(2-propenoyl)-1-piperazinyl)-1-(2-(methylsulfonyl)phenyl)pyrido[2,3-d]pyrimidin-2(1H)-one [Example 54-1]	6.96
C=CC(=O)N1CCN(c2nc(=O)n(-c3c(C(C)C)ccnc3C)c3nc(-c4c(O)cccc4F)c(Cl)cc23)[C@@H](C)C1 (single isomer, unassigned) [Example 54-17-1]	6.38
C=CC(=O)N1CCN(c2nc(=O)n(-c3c(C)cnn3C(C)C)c3nc(-c4c(O)cccc4F)c(Cl)cc23)[C@@H](C)C1 (single isomer, unassigned) [Example 54-71-2]	6.75
C=CC(=O)N1CCN(c2nc(=O)n(-c3c(C)cccc3CC)c3nc(-c4c(O)cccc4F)c(Cl)cc23)[C@@H](C)C1 (single isomer, unassigned) [Example 55-8-1]	7.35
C=CC(=O)N1CCN(c2nc(=O)n(-c3c(C)cccc3CC)c3nc(-c4c(O)cccc4F)c(Cl)cc23)[C@@H](C)C1 (single isomer, unassigned) [Example 55-8-2]	6.80
C=CC(=O)N1CCN(c2nc(=O)n(-c3c(C)ncnc3C(C)C)c3nc(-c4c(O)cccc4F)c(Cl)cc23)[C@@H](C)C1 (single isomer, unassigned) [Example 55-14-1]	5.96
C=CC(=O)N1CCN(c2nc(=O)n(-c3c(C)cccc3C(C)C)c3nc(-c4c(O)cccc4F)c(F)cc23)[C@@H](C)C1 (single isomer, unassigned) [Example 58-18-2]	6.15
C=CC(=O)N1CCN(c2nc(=O)n(-c3ccccc3C(C)C)c3nc(-c4c(O)cccc4F)c(Cl)cc23)CC1 (single isomer, unassigned) [Example 60-24-2, (P)-6-chloro-7-(2-fluoro-6-hydroxyphenyl)-1-(2-(2-propanyl)phenyl)-4-(4-(2-propenoyl)-1-piperazinyl)pyrido[2,3-d]pyrimidin-2(1H)-one]	6.15

Further lines, results first:

pIC50	Compound
7.12	C=CC(=O)N1CCN(c2nc(=O)n(-c3c(C)cccc3C(C)C)c3nc(-c4ccccc4F)c(Cl)cc23)[C@@H](C)C1 (atropisomer, axis not shown; (M)) [Example 64-1, (M)-6-Chloro-7-(2-fluorophenyl)-1-(2-methyl-6-(2-propanyl)phenyl)-4-((2S)-2-methyl-4-(2-propenoyl)-1-piperazinyl)pyrido[2,3-d]pyrimidin-2(1H)-one]
5.78	C=CC(=O)N1CCN(c2nc(=O)n(-c3ccccc3C(C)C)c3cc(-c4ccccc4F)c(Cl)cc23)CC1 (single isomer, unassigned) [Example 88-2, 6-chloro-7-(2 fluorophenyl)-1-(2-(2-propanyl)phenyl)-4-(4-(2-propenoyl)-1-piperazinyl)-2(1H)-quinazolinone]

Same assay, conditions: read-out: p-ERK IC50 (4 h; MIA PaCa-2), 4 h compound treatment

pIC50	Compound
6.01	C=CC(=O)N1CCN(c2nc(=O)n(-c3ccccc3C(C)C)c3nc(-c4c(O)cccc4F)c(Cl)cc23)CC1 (single isomer, unassigned) [Example 60-24-2, (P)-6-chloro-7-(2-fluoro-6-hydroxyphenyl)-1-(2-(2-propanyl)phenyl)-4-(4-(2-propenoyl)-1-piperazinyl)pyrido[2,3-d]pyrimidin-2(1H)-one]
